Laboratory results: ChEMBL document CHEMBL3593203, “The twin drug approach for novel nicotinic acetylcholine receptor ligands” (Bioorg Med Chem, 2015)
pKi: −log10 of the molar value.

What was measured:
[1] = target: T1, Neuronal acetylcholine receptor; alpha4/beta2 (Rattus norvegicus, UniProt P09483+P12390); assay: Displacement of [3H]-epibatidine from Sprague-Dawley rat brain alpha4beta2 nicotine acetylcholine receptor after 90 mins by radioligand displacement assay
[2] = target: T2, Neuronal acetylcholine receptor subunit alpha-7 (Rattus norvegicus, UniProt Q05941); assay: Displacement of [3H]-MLA from Sprague-Dawley rat brain alpha7 nicotine acetylcholine receptor after 90 mins by radioligand displacement assay
T2 sequence (Q05941 whole entry): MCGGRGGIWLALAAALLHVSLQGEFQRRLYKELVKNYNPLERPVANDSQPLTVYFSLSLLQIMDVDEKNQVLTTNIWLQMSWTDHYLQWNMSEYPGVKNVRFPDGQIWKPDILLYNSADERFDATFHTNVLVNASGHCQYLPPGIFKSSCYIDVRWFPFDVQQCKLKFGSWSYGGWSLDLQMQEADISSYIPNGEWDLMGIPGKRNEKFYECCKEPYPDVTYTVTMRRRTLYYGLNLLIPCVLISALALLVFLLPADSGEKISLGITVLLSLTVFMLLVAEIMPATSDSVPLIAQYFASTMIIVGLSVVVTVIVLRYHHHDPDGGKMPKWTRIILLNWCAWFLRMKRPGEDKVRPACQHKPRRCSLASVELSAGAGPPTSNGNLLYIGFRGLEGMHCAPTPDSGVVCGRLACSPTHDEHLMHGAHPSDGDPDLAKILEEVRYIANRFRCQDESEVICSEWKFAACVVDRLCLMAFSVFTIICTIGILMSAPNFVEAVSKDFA

[3] = Displacement of Torpedo californica electroplax muscle type (alpha1)2beta1gammadelta nicotine acetylcholine receptor (unknown origin) after 90 mins by radioligand displacement assay; parameters: species or system Tetronarce californica
[4] = target: T1, Neuronal acetylcholine receptor; alpha4/beta2; assay: Displacement of [3H]-nicotine from alpha4beta2 nicotine acetylcholine receptor in rat brain membranes after 90 mins by liquid scintillation spectrometric analysis; format: cell membranes, Membrane
[5] = target: T2, Neuronal acetylcholine receptor subunit alpha-7; assay: Displacement of [3H]-MLA from alpha7 nicotine acetylcholine receptor in rat brain minus cerebellum after 60 mins by scintillation counting analysis; format: tissue-based
Mus musculus [6] = assay: Antinociceptive activity in ip dosed mouse administered 30 mins prior to testing by hot plate test; format: functional
Mus musculus [7] = assay: Antinociceptive activity in sc dosed ICR mouse administered 5 mins prior to testing by tail-flick method; format: functional

T1 sequence (P09483 whole entry): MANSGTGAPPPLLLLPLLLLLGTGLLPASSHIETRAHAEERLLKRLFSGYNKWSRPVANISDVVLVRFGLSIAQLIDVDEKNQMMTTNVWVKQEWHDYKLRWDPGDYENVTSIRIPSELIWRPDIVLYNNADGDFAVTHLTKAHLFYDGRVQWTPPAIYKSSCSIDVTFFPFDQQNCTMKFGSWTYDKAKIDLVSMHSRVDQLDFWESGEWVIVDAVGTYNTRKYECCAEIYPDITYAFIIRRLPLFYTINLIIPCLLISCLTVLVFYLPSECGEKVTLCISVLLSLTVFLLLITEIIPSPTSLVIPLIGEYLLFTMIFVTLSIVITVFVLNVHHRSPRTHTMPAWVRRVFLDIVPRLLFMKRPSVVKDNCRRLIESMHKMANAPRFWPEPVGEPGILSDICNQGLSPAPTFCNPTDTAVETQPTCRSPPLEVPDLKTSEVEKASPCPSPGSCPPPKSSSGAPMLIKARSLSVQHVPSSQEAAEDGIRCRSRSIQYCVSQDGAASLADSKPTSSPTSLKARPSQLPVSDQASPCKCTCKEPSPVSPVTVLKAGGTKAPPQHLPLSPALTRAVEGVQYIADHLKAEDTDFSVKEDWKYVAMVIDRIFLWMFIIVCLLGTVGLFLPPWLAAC
T1 sequence (P12390 whole entry): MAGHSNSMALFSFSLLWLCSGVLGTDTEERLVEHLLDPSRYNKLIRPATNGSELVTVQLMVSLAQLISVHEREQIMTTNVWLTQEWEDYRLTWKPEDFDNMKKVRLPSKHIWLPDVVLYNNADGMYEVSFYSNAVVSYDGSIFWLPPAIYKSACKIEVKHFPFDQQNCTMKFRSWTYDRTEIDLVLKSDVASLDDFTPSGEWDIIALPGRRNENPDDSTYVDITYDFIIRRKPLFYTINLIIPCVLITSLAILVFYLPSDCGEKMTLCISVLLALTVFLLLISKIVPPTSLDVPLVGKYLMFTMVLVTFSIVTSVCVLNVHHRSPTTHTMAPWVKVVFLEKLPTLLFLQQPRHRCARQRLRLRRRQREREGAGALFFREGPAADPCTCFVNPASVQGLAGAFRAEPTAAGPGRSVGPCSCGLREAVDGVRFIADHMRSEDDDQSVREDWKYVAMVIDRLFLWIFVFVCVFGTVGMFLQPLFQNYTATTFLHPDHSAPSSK

Structure (SMILES)	pKi [1]	pKi [2]	further results
CN(C)CCOc1cncc(N2CCOCC2)c1	< 6.00		
CN(C)CCOc1cc(N2CCCNCC2)cc(F)c1F	< 6.00		
CN(C)CCOc1cc(F)cc(N2CCNCC2)c1	< 6.00		
CN(C)CCOc1cc(F)cc(N2CCN(C)CC2)c1	< 6.00		
CN(C)CCOc1cncc(N2CCCN(C)CC2)c1	6.67		
CN(C)CCOc1cncc(-c2cncc(OCCN(C)C)c2)c1	6.54	< 6.00	pKi [3]: 6.04
CN1CCCC1c1cncc(C2CCCN2C)c1 (stereo not given)			pKi [4]: 5.93
CN(C)CCOc1cc(N2CCCN(C)CC2)cc(F)c1F	< 6.00		
CN(C)CCOc1cc(F)cc(N2CCCN(C)CC2)c1	< 6.00		
CN(C)CCOc1cc(N2CCN(C)CC2)cc(F)c1F	< 6.00		
CN(C)CCOc1cc(F)cc(N2CC3CNCC(C3)C2)c1	6.73	< 6.00	pKi [3]: < 6.00
CN(C)CCOc1cncc(N2CCCNCC2)c1	8.16	< 6.00	pKi [3]: < 6.00
CCN(CC)CCOc1ccc2c(c1)C(=O)c1cc(OCCN(CC)CC)ccc1-2 [TILORONE]			pKi [5]: 6.96
CN(C)CCOc1cncc(N2CCC2)c1	6.11	< 6.00	
CN(C)CCOc1cncc(N2CCNCC2)c1	6.84	< 6.00	pKi [3]: < 6.00
CN(C)CCOc1cncc(N2CC3CNCC(C3)C2)c1	9.73	< 6.00	pKi [3]: < 6.00
CN(C)CCOc1cncc(N2CCCC2)c1	< 6.00	< 6.00	
c1cncc(N2CC3CNCC(C3)C2)c1			MED (Mus musculus [6]): 1.9 µmol/kg
CN(C)CCOc1cc(F)cc(N2CCCNCC2)c1	< 6.00		
CN(C)CCOc1cncc(N2CCCCC2)c1	< 6.00	< 6.00	
CN(C)CCOc1cc(N2CCNCC2)cc(F)c1F	< 6.00		
CN(C)CCOc1cncc(N2CCC(O)CC2)c1	6.21	< 6.00	
CN(C)CCOc1cccnc1			ED50 (Mus musculus [7]): 15 mg/kg
CN(C)CCOc1cncc(N2CCN(C)CC2)c1	7.18	< 6.00	pKi [3]: < 6.00
